Measured values taken from US11753407B2, “Compounds for treating spinal muscular atrophy” (PTC Therapeutics, Inc., priority 2012, dated 2023).

Tests used:
[1] = system: SMN2 minigene mRNA (SMN2-A minigene) in HEK293H cells; assay: SMN2 minigene mRNA splicing RT-qPCR assay in cultured cells; assay type: cell-based, human; settings: Homo sapiens, HEK293-H; concentration increasing full length SMN2 mRNA 1.5-fold relative to vehicle-treated cells; HEK293H cells with SMN2-A minigene, 24 hours, 7-point concentration data; read-out: EC1.5x for production of full length SMN2 mRNA
Summary of the method: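 EC1.5× = concentration raising full-length SMN2 minigene mRNA 1.5-fold over vehicle, from 7-point curves in duplicate. Stably transfected HEK293H cells exposed 24 h at 37 °C; lysates assayed by multiplex RT-qPCR, minigene FL signal normalized to GAPDH via modified ΔΔCt.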

[2] = system: Smn protein in SMA patient fibroblast cells (GM03813); assay: Smn protein assay in cultured cells (SMN HTRF); assay type: cell-based, human; settings: SMA patient fibroblast cells, 48 hours; for EC1.5x for Smn protein expression: 7-point concentration curve, SMN HTRF, concentration producing 1.5 times Smn protein vs DMSO vehicle control; for maximum fold (Fold) increase of Smn protein: 7-point concentration data, fold relative to vehicle control
Summary of the method: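 Smn protein quantified by HTRF with anti-SMN d2/kryptate pair, 665/620 nm ratio blank-corrected, in RIPA lysates of GM03813 fibroblasts after 48 h compound exposure (7 concentrations, 3.16-fold steps, triplicates). Values: concentration producing 1.5× vehicle Smn level, and maximal fold increase.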

| Structure (SMILES) | EC (1.5-fold increase) [1] | EC1.5x for Smn protein expression [2] | maximum fold (Fold) increase of Smn protein [2] | melting point |
| --- | --- | --- | --- | --- |
| Cc1nc2ccc(-c3cc(=O)n4cc(N5CCCNCC5)ccc4n3)cc2o1 [Compound 195, 7-(1,4-diazepan-1-yl)-2-(2-methyl-1,3-benzoxazol-6-yl)-4H-pyrido[1,2-a]pyrimidin-4-one] | < 0.1 µM | *** (an EC1.5× between >0.3 μM and ≤1 μM is indicated by three stars (***)) | **** (a fold increase between >1.5 and ≤1.65 is indicated by four stars (****)) | 134 to 137 °C |
| Cc1nc2ccc(-c3cc(=O)n4cc(N5CCCN(C)CC5)ccc4n3)cc2o1 [Compound 196, 2-(2-methyl-1,3-benzoxazol-6-yl)-7-(4-methyl-1,4-diazepan-1-yl)-4H-pyrido[1,2-a]pyrimidin-4-one] | < 0.1 µM | **** (an EC1.5x≤0.3 μM is indicated by four stars (****)) | **** (a fold increase between >1.5 and ≤1.65 is indicated by four stars (****)) | 146 to 150 °C |
| Cc1nc2ccc(-c3cc(=O)n4cc(N5CCN6CCC[C@H]6C5)ccc4n3)cc2o1 [Compound 197, 7-[(8aS)-hexahydropyrrolo[1,2-a]pyrazin-2(1H)-yl]-2-(2-methyl-1,3-benzoxazol-6-yl)-4H-pyrido[1,2-a]pyrimidin-4-one] | 0.1 to 0.3 µM | **** (an EC1.5x≤0.3 μM is indicated by four stars (****)) | ***** (a fold increase >1.65 is indicated by five stars (*****)) | 214 to 217 °C |
| Cc1nc2ccc(-c3cc(=O)n4cc(N5CCN6CCC[C@@H]6C5)ccc4n3)cc2o1 [Compound 198, 7-[(8aR)-hexahydropyrrolo[1,2-a]pyrazin-2(1H)-yl]-2-(2-methyl-1,3-benzoxazol-6-yl)-4H-pyrido[1,2-a]pyrimidin-4-one] | < 0.1 µM | **** (an EC1.5x≤0.3 μM is indicated by four stars (****)) | **** (a fold increase between >1.5 and ≤1.65 is indicated by four stars (****)) | 194 to 199 °C |
| COc1cnc(-c2cc(=O)n3cc(N4CCNCC4)ccc3n2)cc1OC [Compound 199, 2-(4,5-dimethoxypyridin-2-yl)-7-(piperazin-1-yl)-4H-pyrido[1,2-a]pyrimidin-4-one] | 0.3 to 1 µM | ** (an EC1.5× between >1 μM and ≤3 μM is indicated by two stars (**)) | **** (a fold increase between >1.5 and ≤1.65 is indicated by four stars (****)) | 207 to 209 °C |
| COc1ccc(-c2cc(=O)n3cc(N4CCC(N(C)C)C4)ccc3c2)cc1F (stereo not drawn) [Compound 200, 7-[3-(dimethylamino)pyrrolidin-1-yl]-2-(3-fluoro-4-methoxyphenyl)-4H-quinolizin-4-one] | 1 to 3 µM |  | * (A maximum fold increase of ≤1.2 is indicated by one star (*)) | 259 to 261 °C |
| CCN1CCN(c2ccc3nc(-c4ccc5nc(C)oc5c4)cc(=O)n3c2)CC1 [Compound 202, 7-(4-ethylpiperazin-1-yl)-2-(2-methyl-1,3-benzoxazol-6-yl)-4H-pyrido[1,2-a]pyrimidin-4-one] | 0.3 to 1 µM |  | ** (a fold increase between >1.2 and ≤1.35 is indicated by two stars (**)) | 212 to 216 °C |
| COc1ccc(-c2cc(=O)n3cc(C4=CCN(C)CC4)ccc3n2)cc1F [Compound 204, 2-(3-fluoro-4-methoxyphenyl)-7-(1-methyl-1,2,3,6-tetrahydropyridin-4-yl)-4H-pyrido[1,2-a]pyrimidin-4-one] | < 0.1 µM | **** (an EC1.5x≤0.3 μM is indicated by four stars (****)) | **** (a fold increase between >1.5 and ≤1.65 is indicated by four stars (****)) | 129 to 132 °C |
| COc1ccc(-c2cc(=O)n3cc(N4CC[C@H](N(C)C)C4)ccc3n2)cc1F [Compound 205, 7-[(3S)-3-(dimethylamino)pyrrolidin-1-yl]-2-(3-fluoro-4-methoxyphenyl)-4H-pyrido[1,2-a]pyrimidin-4-one] | 0.3 to 1 µM |  | ** (a fold increase between >1.2 and ≤1.35 is indicated by two stars (**)) | 187 to 192 °C |
| COc1ccc(-c2cc(=O)n3cc(N4C[C@@H](O)[C@H](N(C)C)C4)ccc3n2)cc1F [Compound 206, 7-[(3R,4R)-3-(dimethylamino)-4-hydroxypyrrolidin-1-yl]-2-(3-fluoro-4-methoxyphenyl)-4H-pyrido[1,2-a]pyrimidin-4-one] | 1 to 3 µM |  | ** (a fold increase between >1.2 and ≤1.35 is indicated by two stars (**)) | 223 to 228 °C |
| COc1ccc(-c2cc(=O)n3cc(N4CCC(N)CC4)ccc3n2)cc1F [Compound 207, 7-(4-aminopiperidin-1-yl)-2-(3-fluoro-4-methoxyphenyl)-4H-pyrido[1,2-a]pyrimidin-4-one] | < 0.1 µM |  | *** (a fold increase between >1.35 and ≤1.5 is indicated by three stars (***)) | 173 to 179 °C |
| CNC1CCN(c2ccc3nc(-c4ccc(OC)c(F)c4)cc(=O)n3c2)CC1 [Compound 208, 2-(3-fluoro-4-methoxyphenyl)-7-[4-(methylamino)piperidin-1-yl]-4H-pyrido[1,2-a]pyrimidin-4-one] | < 0.1 µM | *** (an EC1.5× between >0.3 μM and ≤1 μM is indicated by three stars (***)) | *** (a fold increase between >1.35 and ≤1.5 is indicated by three stars (***)) | 167 to 171 °C |
| Cc1cn2cc(-c3cc(=O)n4cc(N5C[C@@H](C)N[C@@H](C)C5)ccc4n3)cc(F)c2n1 [Compound 210, 7-[(3R,5S)-3,5-dimethylpiperazin-1-yl]-2-(8-fluoro-2-methylimidazo[1,2-a]pyridin-6-yl)-4H-pyrido[1,2-a]pyrimidin-4-one] | < 0.1 µM | **** (an EC1.5x≤0.3 μM is indicated by four stars (****)) | **** (a fold increase between >1.5 and ≤1.65 is indicated by four stars (****)) | 255 to 259 °C |
| Cc1cn2cc(-c3cc(=O)n4cc(N5CCCN(C)CC5)ccc4n3)cc(F)c2n1 [Compound 211, 2-(8-fluoro-2-methylimidazo[1,2-a]pyridin-6-yl)-7-(4-methyl-1,4-diazepan-1-yl)-4H-pyrido[1,2-a]pyrimidin-4-one] | < 0.1 µM | **** (an EC1.5x≤0.3 μM is indicated by four stars (****)) | **** (a fold increase between >1.5 and ≤1.65 is indicated by four stars (****)) | 262 to 266 °C |
| COc1ccc(-c2cc(=O)n3cc(N4C[C@H]5CNC[C@H]5C4)ccc3n2)cc1F [Compound 212, 2-(3-fluoro-4-methoxyphenyl)-7-[(3aR,6aS)-hexahydropyrrolo[3,4-c]pyrrol-2(1H)-yl]-4H-pyrido[1,2-a]pyrimidin-4-one] | 0.1 to 0.3 µM | **** (an EC1.5x≤0.3 μM is indicated by four stars (****)) | **** (a fold increase between >1.5 and ≤1.65 is indicated by four stars (****)) | 195 to 200 °C |
| COc1ccc(-c2cc(=O)n3cc(N4C[C@H]5CN(C)C[C@H]5C4)ccc3n2)cc1F [Compound 213, 2-(3-fluoro-4-methoxyphenyl)-7-[(3aR,6aS)-5-methylhexahydropyrrolo[3,4-c]pyrrol-2(1H)-yl]-4H-pyrido[1,2-a]pyrimidin-4-one] | 0.1 to 0.3 µM | **** (an EC1.5x≤0.3 μM is indicated by four stars (****)) | *** (a fold increase between >1.35 and ≤1.5 is indicated by three stars (***)) | 204 to 210 °C |
| COc1ccc(-c2cc(=O)n3cc(C4CCN(CCO)CC4)ccc3n2)cc1OC [Compound 214, 2-(3,4-dimethoxyphenyl)-7-[1-(2-hydroxyethyl)piperidin-4-yl]-4H-pyrido[1,2-a]pyrimidin-4-one] | 0.3 to 1 µM | ** (an EC1.5× between >1 μM and ≤3 μM is indicated by two stars (**)) | **** (a fold increase between >1.5 and ≤1.65 is indicated by four stars (****)) | 145 to 148 °C |
| COc1cc(-c2cc(=O)n3cc(N4CCN[C@@H](C)C4)ccc3n2)ccc1F [Compound 215, 2-(4-fluoro-3-methoxyphenyl)-7-[(3S)-3-methylpiperazin-1-yl]-4H-pyrido[1,2-a]pyrimidin-4-one] | 0.3 to 1 µM |  | *** (a fold increase between >1.35 and ≤1.5 is indicated by three stars (***)) | 130 to 135 °C |
| COc1cc(-c2cc(=O)n3cc(N4CCNCC4)ccc3n2)ccc1F [Compound 216, 2-(4-fluoro-3-methoxyphenyl)-7-(piperazin-1-yl)-4H-pyrido[1,2-a]pyrimidin-4-one] | 0.3 to 1 µM |  | *** (a fold increase between >1.35 and ≤1.5 is indicated by three stars (***)) | 170 to 172 °C |
